Entries after “also recorded” stand apart in the source; their conditions may differ.
Assays:
[1] = Pharmacokinetics in mice, 2 mg/kg iv; type: in vivo; conditions: female, BALB/c, mouse, plasma
Procedure: To test compound drug-like properties, selected compounds with low IC50 were further evaluated for their pharmacokinetic (PK) profile. 6–8 week-old BABL/c female mice were used. Two mg/kg of compounds was formulated in 7.5% DMSO and 92.5% PBS solution and intravenously dosed into the tail vein as a bolus. Blood samples were collected by cardiac puncture at 5, 15, 30, 60, 180, and 240 min post dosing. Plasma samples were prepared by centrifugation at 7000 rpm for 5 min, and supernatants were collected, immediately snap-frozen on dry ice and stored at −20 °C. Samples were analyzed by liquid chromatography-tandem mass spectrometry using electrospray ionization and data was analyzed by WinNonlin software.

[2] = test system: VEGFA-induced mechanical allodynia in rats; assay: VEGFA-induced mechanical allodynia (von Frey), intraplantar injection; type: in vivo, rat; conditions: 30 μM coinjected with VEGFA165 10 nM, 50 μL intraplantar; male and female rats
Procedure: (§1) The procedure was performed as reported previously. Briefly, rats were gently restrained in a fabric cloth and given an intraplantar injection in the hind-paw containing VEGFA165 (10 nM) and compound (EG00229 or 12h, at 30 or 10 μM) alone or in combination in 50 μL of PBS vehicle (NaCl 137 mM, KCl 2.5 mM, Na2HPO4 10 mM, and KH2PO4 1.8 mM), using a 31G needle.

[3] = test system: T180/Y182 phosphorylated p38 (P-p38) in retinal endothelium; assay: VEGFA-induced p38 phosphorylation in ex vivo mouse retina (immunostaining); type: cell-based
Procedure: Retinae from C57Bl/6J mice were fixed in 4% formaldehyde in PBS for 1 h and washed three times with PBS. After 1 h in blocking buffer (3% Triton X-100, 1%1% Tween and 0.5% BSA in 2× PBS), retinae were immunostained by incubation with rabbit anti-P-p38 MAPK (Thr180/Tyr182) antibody (Cell Signaling) and biotin-conjugated Isolectin B4 (IB4, Merck) overnight at 4 °C, followed by Alexa Fluor 555–conjugated goat antirabbit antibodies (Invitrogen) and Alexa Fluor 488-conjugated streptavidin (Invitrogen) respectively for 1 h at rt. Images were acquired with a Zeiss Axioskop 2 microscope, using a ph3 Plan-Apochromat 63×/1.40 oil objective, Hamamatsu camera and the HCImage software. Each image was acquired as an RGB color image and then processed with ImageJ software version 1.52a (NIH Bethesda). Channels were split to separate the IB4 staining (green channel) from the P-p38 staining (red channel). The threshold function was used on the IB4 image to determine the area of the vessels and to generate a mask that was restored in the red channel image to measure the area of the vessels positive to P-p38 staining. The P-p38 staining area was normalized against the area stained with IB4. Three retinae from three different mice per condition were used for analysis. One-way ANOVA was used to compare the different treatments.

[4] = test system: VEGFA-induced aversion to mechanical stimuli in rats; assay: Conditioned place aversion (CPA) to 10 g vF stimulation after VEGFA; type: in vivo, rat
Procedure: as §1
The experiments were conducted in a two-chamber device based on the protocols from and as previously described. The protocol includes 4 × 10 min of sequential tests of preconditioning (10 min), conditioning (2 × 10 min) and testing (10 min). During preconditioning, the animal is allowed free access to two connected chambers (30 × 30 × 19 cm), each associated with a scented lip-balm applied to the walls. Immediately following preconditioning, a divider was applied between the chambers, and the rats were conditioned to either stimuli or no-stimuli for 10 min in each chamber. The stimuli consisted of repeated stimulation with a 10 g VF-filament every 30 s for the 10 min that the subject was contained in that chamber, while no stimuli (NS) was applied in the other chamber. The order and side of conditioning was alternated between subjects. Following the conditioning, the divider was removed, and the rat was allowed free access to both chambers for the 10 min test. Animal movements in each chamber were recorded by a camera above, and the duration of time spent in each chamber was recorded during preconditioning and test phase. Decreased time spent in a chamber during the test versus preconditioning indicated avoidance for that chamber and was calculated as a CPA-score: time in VF-chamber during preconditioning – time in VF-chamber during test.

[5] = test system: P-p38 in human brain endothelial cell line hCMEC/D3; assay: p38 phosphorylation in hCMEC/D3 cells (immunoblotting); type: cell-based
Procedure: Cell lysates of the human brain endothelial cell line hCMEC/D3 were prepared in RIPA buffer containing 0.1% SDS, protease inhibitor cocktail 2 and phosphatase inhibitor cocktail (Sigma-Aldrich). Proteins were separated by SDS-PAGE and transferred to nitrocellulose by wet electrotransfer. Membranes were blocked with 5% milk in Tris-buffered saline (TBS) overnight at 4 °C and then incubated with the appropriate primary antibody diluted in TBS containing 0.1% Tween-20 and 1% BSA for 2 h and 30 min at rt; the primary antibodies used were specific for phospho P-p38, p38 (1:1000; Cell Signaling Technology) and GADPH (1:10000; Merck). Membranes were washed with 0.1% Tween-20 in TBS and then incubated with goat antimouse or goat antirabbit horseradish peroxidase (HRP)-conjugated IgG (GE Healthcare) diluted 1:10,000 or 1:5000, respectively, with 0.1% Tween-20, 1% BSA in PBS. Membranes were developed using the ECL reagents (Roche) and images were acquired with the Bio-Rad ChemiDoc MP Imaging System and the Bio-Rad Image Lab software (version 6.0.1). Protein bands were quantified using ImageJ software version 1.52a (NIH Bethesda), whereby signal intensity was normalized to signal intensity from GADPH from the same sample as a loading control. Phosphorylation levels were normalized against the total levels of p38. Densitometric quantification of three independent immunoblots was determined by changes in protein or phosphoprotein content normalized to GADPH total protein loading controls, with values expressed as fold increase. Data are shown as mean ± SD. Statistical analysis included one-way ANOVA with significance levels set at 0.05, followed by posthoc Dunnett’s tests.

[6] = 30 μM, 15 min prior to VEGFA165 stimulation

N=C(N)NCCC[C@H](NC(=O)c1sccc1NS(=O)(=O)c1cc(NCc2csc(N3CCNCC3)n2)cc2cccnc12)C(=O)O.O=CO [Compound 12h, (2S)-5-Guanidino-2-[[3-[[6-[(2-piperazin-1-ylthiazol-4-yl)-methylamino]-8-quinolyl]-sulfonylamino]-thiophene-2-carbonyl]-amino]-pentanoic Acid, Formic Acid]
AUC(0-inf) [1]: 1370 ng·h/mL
AUC(0-t) [1]: 1370 ng·h/mL
Cmax [1]: 5180 ng/mL
Tmax [1]: 4.8 min
Vd [1]: 0.394 L/kg
half-life [1]: 78 min
clearance ([1]; iv, 2 mg/kg): 24.5 mL/min/kg
AUC ([1]; read-out: AUC): 1370 ng·h/mL
effect on VEGFA-induced mechanical allodynia (paw withdrawal threshold, AUC 0-6 h) [2]: comparable antinociceptive effects in males and females
p38 phosphorylation when added alone ([3]; 30 μM alone, 5 min): did not induce p38 phosphorylation
effect on VEGFA-induced p38 phosphorylation in retinal endothelium [3, 6]: prevented VEGFA-induced p38 phosphorylation
VEGFA-induced stimulus-aversion (time in vF-conditioned chamber), Figure S5 ([4]; 10 μM coinjected with VEGFA 10 nM): blocked by 10 μM 12h in males
effect on VEGFA-induced aversion in CPA-paradigm ([4]; 10 μM, male rats): showed significant reduction in VEGFA-induced aversion
VEGFA-induced aversion (time in vF-conditioned chamber) ([4]; 30 μM coinjected with VEGFA 10 nM, male and female rats): prevented significant stimulus-aversion from VEGFA in both sexes; also recorded: the aversion was prevented
CPA-score vs VEGFA/vehicle ([4]; 30 μM, female rats): did not show a statistically significant improvement
p38 phosphorylation when added alone ([5]; 30 μM alone, 5 min): did not induce p38 phosphorylation
effect on VEGFA-induced p38 phosphorylation [5, 6]: prevented VEGFA-induced p38 phosphorylation
